Publication PMC7832312, “Enhancing the Physiochemical Properties of Puerarin via L-Proline Co-Crystallization: Synthesis, Characterization, and Dissolution Studies of Two Phases of Pharmaceutical Co-Crystals” (International Journal of Molecular Sciences, 2021)
In brackets after ≈: the same amount, converted by molar mass.

Legend:
[1] = system: HEK-293 cell lines; experiment: Cytotoxicity evaluation by MTT assay, HEK-293; type: cell-based, human; settings: HEK-293, culturing 24 h
Protocol: (§1) CT-26 and HEK-293 cell line was purchased from American Type Culture Collection (Manassas, VA, USA). The cell lines were cultured in RPMI 1640 (for CT-26) or DMEM (for HEK-293) containing 10% fetal bovine serum (FBS, Zhejiang Tianhang Biotechnology Co. Ltd., Hangzhou, China) and 1% penicillin/streptomycin (Zhejiang Tianhang Biotechnology Co. Ltd., Hangzhou, China). Cells grew as a monolayer and were detached upon confluence using trypsin (0.5% w/v in PBS, Zhejiang Tianhang Biotechnology Co. Ltd., Hangzhou, China). The cells were harvested from the cell culture medium by incubating in trypsin solution for 3 min. The cells were centrifuged, and the supernatant discarded. A 3 mL portion of serum-supplemented cell culture medium was added to neutralize any residual trypsin. The cells were re-suspended in serum-supplemented RPMI 1640 (for CT-26) or DMEM (for HEK-293) at a concentration of 5 × 10^4 cells per 1 mL. Cells were cultured at 37 °C and 5% CO2 for MTT studies.
(§2) The CT-26 or HEK-293 cells were seeded at a density of 1 × 10^4 cells per well in 100 µL of complete RPMI 1640 (CT-26) or DMEM (for HEK-293), and cultured for 16 h for attachment. The culture medium was then replaced by a serum-free medium containing various concentrations of pristine PUE, I, and II. […] After incubating the cells at 37 °C for 4 h, the MTT solution was removed and DMSO (100 μL) added to dissolve the formazan crystals formed, and the microplates were agitated for 5 min at a medium rate before the spectrophotometric measurement at a wavelength of 570 nm on a microplate reader. […] The relative cell viability (%) related to control cells was calculated by the formula below: V%=[A]experimental−[A]blank/[A]control−[A]blank×100% where V% is the percentage of cell viability, [A]experimental is the absorbance of the wells culturing the treated cells, [A]blank is the absorbance of the blank, and [A]control is the absorbance of the wells culturing untreated cells.

[2] = system: CT-26 cancer cell lines; experiment: Cytotoxicity evaluation by MTT assay, CT-26; type: cell-based, murine; settings: CT-26, culturing 24 h
Protocol: as §1, §2

[3] = Dissolution rate measurement (UV, 250 mL medium, 150 RPM, 2 h, 37 °C); type: physicochemical; settings: for Time-dependent dissolution rate: 37 °C
Protocol: The solubility and dissolution studies of pure PUE, I, and II were measured using a Thermo Scientific Evolution 300 UV spectrometer in deionized water at pH 7.0, gastrointestinal tract at pH 1.2, and phosphate buffer at pH 6.8 solution at 37 °C. The concentration was calculated utilizing a standard curve, which was made by measuring the absorbance of different concentrations at their λmax. A superfluity sum of the sample was added to 10 mL of H2O medium, pH 1.2 and pH 6.8 phosphate, respectively.
(§3) The oversaturated solution was stirred at 500 RPM by magnetic stirring at 37 °C for 24 h and the suspension was filtered through Whatman’s […] syringe channel, diluted sufficiently and the absorbance was measured at their λmax. For the dissolution rate, the sample was specifically poured into 250 mL pH 7.0 water, pH 1.2 gastrointestinal tract, and pH 6.8 phosphates medium and then stirred at 150 RPM for 2h at 37 °C. Each solution was measured by the absorbance at λmax. At customary interims, the solution was replenished with 3 mL of the respective blank solution to maintain an overall steady volume.

[4] = Solubility measurement (UV, oversaturated solution stirred 24 h at 37 °C); type: physicochemical; settings: thermodynamic from solid, average of three replicates
Protocol: The concentration was calculated utilizing a standard curve, which was made by measuring the absorbance of different concentrations at their λmax. A superfluity sum of the sample was added to 10 mL of H2O medium, pH 1.2 and pH 6.8 phosphate, respectively.
as §3

[5] = cited from earlier work

In the case of `CCO.O.O.O=C(O)[C@@H]1CCCN1.O=c1c(-c2ccc(O)cc2)coc2c([C@@H]3O[C@H](CO)[C@@H](O)[C@H](O)[C@H]3O)c(O)ccc12.O=c1c(-c2ccc(O)cc2)coc2c([C@@H]3O[C@H](CO)[C@@H](O)[C@H](O)[C@H]3O)c(O)ccc12` [II, [PUE]2[PRO]∙EtOH∙(H2O)2], the “cytotoxicity (MTT cell viability)” value [1] is reported as “negligible cytotoxicity”, the “cytotoxicity (MTT cell viability)” value [2] is reported as “negligible cytotoxicity” and the Time-dependent dissolution rate ([3]; Water, 5 min) is reported as 0.131 mg/mL. The Time-dependent dissolution rate ([3]; Water, 10 min) was 0.210 mg/mL, the Time-dependent dissolution rate ([3]; Water, 15 min) was 0.281 mg/mL and the Time-dependent dissolution rate ([3]; Water, 20 min) was 0.457 mg/mL. It also gave a Time-dependent dissolution rate ([3]; Water, 25 min) of 0.567 mg/mL, a Time-dependent dissolution rate ([3]; Water, 30 min) of 0.701 mg/mL and a Time-dependent dissolution rate ([3]; Water, 40 min) of 1.450 mg/mL. The Time-dependent dissolution rate ([3]; Water, 50 min) was 2.110 mg/mL, the Time-dependent dissolution rate ([3]; Water, 60 min) was 2.490 mg/mL and the Time-dependent dissolution rate ([3]; Water, 80 min) was 2.840 mg/mL. For the same compound, the Time-dependent dissolution rate ([3]; Water, 100 min) was 3.203 mg/mL, the Time-dependent dissolution rate ([3]; Water, 120 min) was 3.410 mg/mL and the Time-dependent dissolution rate ([3]; pH 1.2, 5 min) was 0.171 mg/mL. For the same compound, the Time-dependent dissolution rate ([3]; pH 1.2, 10 min) was 0.240 mg/mL, the Time-dependent dissolution rate ([3]; pH 1.2, 15 min) was 0.337 mg/mL and the Time-dependent dissolution rate ([3]; pH 1.2, 20 min) was 0.417 mg/mL. For the same compound, the Time-dependent dissolution rate ([3]; pH 1.2, 25 min) was 0.479 mg/mL, the Time-dependent dissolution rate ([3]; pH 1.2, 30 min) was 0.534 mg/mL and the Time-dependent dissolution rate ([3]; pH 1.2, 40 min) was 1.005 mg/mL. For the same compound, the Time-dependent dissolution rate ([3]; pH 1.2, 50 min) was 1.342 mg/mL, the Time-dependent dissolution rate ([3]; pH 1.2, 60 min) was 1.489 mg/mL and the Time-dependent dissolution rate ([3]; pH 1.2, 80 min) was 1.683 mg/mL. For the same compound, the Time-dependent dissolution rate ([3]; pH 1.2, 100 min) was 1.923 mg/mL, the Time-dependent dissolution rate ([3]; pH 1.2, 120 min) was 2.005 mg/mL and the “dissolution rate compared with the other forms” value ([3]; pH 1.2, pH 6.8, H2O pH 7.0) was “higher dissolution rate than both I and PUE”. For the same compound, the Time-dependent dissolution rate ([3]; pH 6.8, 5 min) was 0.121 mg/mL, the Time-dependent dissolution rate ([3]; pH 6.8, 10 min) was 0.212 mg/mL and the Time-dependent dissolution rate ([3]; pH 6.8, 15 min) was 0.352 mg/mL. It also gave a Time-dependent dissolution rate ([3]; pH 6.8, 20 min) of 0.446 mg/mL, a Time-dependent dissolution rate ([3]; pH 6.8, 25 min) of 0.537 mg/mL and a Time-dependent dissolution rate ([3]; pH 6.8, 30 min) of 0.861 mg/mL. For the same compound, the Time-dependent dissolution rate ([3]; pH 6.8, 40 min) was 1.059 mg/mL, the Time-dependent dissolution rate ([3]; pH 6.8, 50 min) was 1.503 mg/mL and the Time-dependent dissolution rate ([3]; pH 6.8, 60 min) was 2.210 mg/mL. The Time-dependent dissolution rate ([3]; pH 6.8, 80 min) was 2.723 mg/mL, the Time-dependent dissolution rate ([3]; pH 6.8, 100 min) was 3.138 mg/mL and the Time-dependent dissolution rate ([3]; pH 6.8, 120 min) was 3.370 mg/mL.
`O=c1c(-c2ccc(O)cc2)coc2c([C@@H]3O[C@H](CO)[C@@H](O)[C@H](O)[C@H]3O)c(O)ccc12` [PUE, Puerarin] showed a solubility at 24 h ([4]; aqueous buffer, phosphate buffer at pH 6.8, 37 °C) of 2490 µg/mL (≈ 5.97 mM), a solubility at 24 h ([4]; deionized water, Distilled Water (pH 7.0), 37 °C) of 2530 µg/mL (≈ 6.07 mM) and a solubility at 24 h ([4]; gastrointestinal tract medium pH 1.2, simulated gastric fluid, gastrointestinal tract at pH 1.2, 37 °C) of 1510 µg/mL (≈ 3.63 mM). For the same compound, the “cytotoxicity (MTT cell viability)” value [1] was “negligible cytotoxicity”, the elimination half-life [5] was “short” and the oral bioavailability [5] was “about 7%”. The “cytotoxicity (MTT cell viability)” value [2] was “negligible cytotoxicity”, the Time-dependent dissolution rate ([3]; Water, 5 min) was 0.062 mg/mL and the Time-dependent dissolution rate ([3]; Water, 10 min) was 0.109 mg/mL. For the same compound, the Time-dependent dissolution rate ([3]; Water, 15 min) was 0.190 mg/mL, the Time-dependent dissolution rate ([3]; Water, 20 min) was 0.250 mg/mL and the Time-dependent dissolution rate ([3]; Water, 25 min) was 0.294 mg/mL. It also gave a Time-dependent dissolution rate ([3]; Water, 30 min) of 0.506 mg/mL, a Time-dependent dissolution rate ([3]; Water, 40 min) of 0.611 mg/mL and a Time-dependent dissolution rate ([3]; Water, 50 min) of 0.692 mg/mL. For the same compound, the Time-dependent dissolution rate ([3]; Water, 60 min) was 0.821 mg/mL, the Time-dependent dissolution rate ([3]; Water, 80 min) was 0.896 mg/mL and the Time-dependent dissolution rate ([3]; Water, 100 min) was 0.935 mg/mL. For the same compound, the Time-dependent dissolution rate ([3]; Water, 120 min) was 1.031 mg/mL, the Time-dependent dissolution rate ([3]; pH 1.2, 5 min) was 0.008 mg/mL and the Time-dependent dissolution rate ([3]; pH 1.2, 10 min) was 0.019 mg/mL. It also gave a Time-dependent dissolution rate ([3]; pH 1.2, 15 min) of 0.023 mg/mL, a Time-dependent dissolution rate ([3]; pH 1.2, 20 min) of 0.030 mg/mL and a Time-dependent dissolution rate ([3]; pH 1.2, 25 min) of 0.035 mg/mL. It also gave a Time-dependent dissolution rate ([3]; pH 1.2, 30 min) of 0.043 mg/mL, a Time-dependent dissolution rate ([3]; pH 1.2, 40 min) of 0.163 mg/mL and a Time-dependent dissolution rate ([3]; pH 1.2, 50 min) of 0.354 mg/mL. The Time-dependent dissolution rate ([3]; pH 1.2, 60 min) was 0.394 mg/mL, the Time-dependent dissolution rate ([3]; pH 1.2, 80 min) was 0.435 mg/mL and the Time-dependent dissolution rate ([3]; pH 1.2, 100 min) was 0.568 mg/mL. The Time-dependent dissolution rate ([3]; pH 1.2, 120 min) was 0.685 mg/mL, the Time-dependent dissolution rate ([3]; pH 6.8, 5 min) was 0.078 mg/mL and the Time-dependent dissolution rate ([3]; pH 6.8, 10 min) was 0.110 mg/mL. It also gave a Time-dependent dissolution rate ([3]; pH 6.8, 15 min) of 0.168 mg/mL, a Time-dependent dissolution rate ([3]; pH 6.8, 20 min) of 0.244 mg/mL and a Time-dependent dissolution rate ([3]; pH 6.8, 25 min) of 0.274 mg/mL. It also gave a Time-dependent dissolution rate ([3]; pH 6.8, 30 min) of 0.347 mg/mL, a Time-dependent dissolution rate ([3]; pH 6.8, 40 min) of 0.415 mg/mL and a Time-dependent dissolution rate ([3]; pH 6.8, 50 min) of 0.444 mg/mL. The Time-dependent dissolution rate ([3]; pH 6.8, 60 min) was 0.504 mg/mL, the Time-dependent dissolution rate ([3]; pH 6.8, 80 min) was 0.560 mg/mL and the Time-dependent dissolution rate ([3]; pH 6.8, 100 min) was 0.641 mg/mL. For the same compound, the Time-dependent dissolution rate ([3]; pH 6.8, 120 min) was 0.785 mg/mL.
